From patent publication US20220281848A1, “PYRAZOLE-SUBSTITUTED PYRROLIDINONES AS HERBICIDES” (FMC Corporation, priority 2019, published 2022)

Experiments:
Type in all cases: in vivo
corn (Zea mays, ZEAMX) = assay: Test A post-emergence, corn; details: after 13 d
In short: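 Visual damage at 13 d after treatment, rated from 0 (no damage) to 100 (total damage). Eight-day-old pot-grown plants had been sprayed with 15.625, 62.5 or 250 g/ha of compound in aqueous acetone (50:50) containing 0.5% Tween 20.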

[1] = tested on: barnyardgrass (Echinochloa crus-galli, ECHCG); assay: Test A pre-emergence, barnyardgrass; details: after 13 d
In short: (§1)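 Seeds sown in pots of standard soil and sprayed one day later, pre-emergence, at 15.625, 62.5 or 250 g/ha in acetone/water (50:50) with 0.5% Tween 20. Grown in glasshouse at 24/16 °C, 14 h light, 65% humidity. Damage scored after 13 d (0 none, 100 total).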

[2] = tested on: redroot pigweed (Amaranthus retroflexus, AMARE); assay: Test A pre-emergence, redroot pigweed; details: after 13 d
In short: as §1

[3] = tested on: velvetleaf (Abutilon theophrasti, ABUTH); assay: Test A pre-emergence, velvetleaf; details: after 13 d
In short: as §1

plants = assay: Test D post-emergence, other plants of Tables D2 and D4; details: "Cereals" Postemergent, evaluated after 15 d
In short: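 Damage was rated visually from 0 (none) to 100 (total), at 20 DAA for pre-emergence and 15 d for post-emergence. Plants grew from safener-treated seed in a glasshouse at 24/18° C. or 20/16° C. day/night, 65% humidity, watered twice daily.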

COc1c(F)cccc1NC(=O)C1C(=O)N(C)CC1c1cc(C(F)(F)F)n(C)n1 (racemic) [Compound 18]
50: HORVW damage rating (100=total damage to plant; 0=no damage to plant) (plants; Rates 500) | POAAN damage rating (100=total damage to plant; 0=no damage to plant) (plants; Rates 250)
40: ALOMY damage rating (100=total damage to plant; 0=no damage to plant) (plants; Rates 500) | AVEFA damage rating (100=total damage to plant; 0=no damage to plant) (plants; Rates 500) | GALAP damage rating (100=total damage to plant; 0=no damage to plant) (plants; Rates 500) | SINAR damage rating (100=total damage to plant; 0=no damage to plant) (plants; SINAR, Rates 500)
30: damage to plant (100=total damage; 0=no damage) ZEAMX (corn (Zea mays, ZEAMX); Post-Emergence at 62.5 g/ha) | ALOMY damage rating (100=total damage to plant; 0=no damage to plant) (plants; Rates 250) | HORVW damage rating (100=total damage to plant; 0=no damage to plant) (plants; Rates 250)
0: damage to plant (100=total damage; 0=no damage) ZEAMX (corn (Zea mays, ZEAMX); Post-Emergence at 15.625 g/ha) | damage to plant (100=total damage; 0=no damage) AMARE ([2]; Pre-Emergence at 15.625 g/ha) | damage to plant (100=total damage; 0=no damage) AMARE ([2]; Pre-Emergence at 62.5 g/ha) | damage to plant (100=total damage; 0=no damage) AMARE ([2]; Pre-Emergence at 250 g/ha) | damage to plant (100=total damage; 0=no damage) ABUTH ([3]; Pre-Emergence at 15.625 g/ha) | damage to plant (100=total damage; 0=no damage) ABUTH ([3]; Pre-Emergence at 62.5 g/ha) | damage to plant (100=total damage; 0=no damage) ABUTH ([3]; Pre-Emergence at 250 g/ha) | AVEFA damage rating (100=total damage to plant; 0=no damage to plant) (plants; Rates 130) | BEAVA damage rating (100=total damage to plant; 0=no damage to plant) (plants; Rates 130) | BEAVA damage rating (100=total damage to plant; 0=no damage to plant) (plants; Rates 250) | BEAVA damage rating (100=total damage to plant; 0=no damage to plant) (plants; Rates 500) | BROTE damage rating (100=total damage to plant; 0=no damage to plant) (plants; Rates 130) | BROTE damage rating (100=total damage to plant; 0=no damage to plant) (plants; Rates 250) | BROTE damage rating (100=total damage to plant; 0=no damage to plant) (plants; Rates 500) | CHEAL damage rating (100=total damage to plant; 0=no damage to plant) (plants; Rates 130) | CHEAL damage rating (100=total damage to plant; 0=no damage to plant) (plants; Rates 250) | GALAP damage rating (100=total damage to plant; 0=no damage to plant) (plants; Rates 130) | GALAP damage rating (100=total damage to plant; 0=no damage to plant) (plants; Rates 250) | HORVW damage rating (100=total damage to plant; 0=no damage to plant) (plants; Rates 130) | KCHSC damage rating (100=total damage to plant; 0=no damage to plant) (plants; Rates 130) | KCHSC damage rating (100=total damage to plant; 0=no damage to plant) (plants; Rates 250) | KCHSC damage rating (100=total damage to plant; 0=no damage to plant) (plants; Rates 500) | LOLPE damage rating (100=total damage to plant; 0=no damage to plant) (plants; Rates 130) | LOLPE damage rating (100=total damage to plant; 0=no damage to plant) (plants; Rates 250) | POAAN damage rating (100=total damage to plant; 0=no damage to plant) (plants; Rates 130) | POLCO damage rating (100=total damage to plant; 0=no damage to plant) (plants; Rates 130) | POLCO damage rating (100=total damage to plant; 0=no damage to plant) (plants; Rates 250) | POLCO damage rating (100=total damage to plant; 0=no damage to plant) (plants; Rates 500) | STEME damage rating (100=total damage to plant; 0=no damage to plant) (plants; STEME, Rates 130)
80: damage to plant (100=total damage; 0=no damage) ZEAMX (corn (Zea mays, ZEAMX); Post-Emergence at 250 g/ha)
70: POAAN damage rating (100=total damage to plant; 0=no damage to plant) (plants; Rates 500)
20: AVEFA damage rating (100=total damage to plant; 0=no damage to plant) (plants; Rates 250) | BRSNN damage rating (100=total damage to plant; 0=no damage to plant) (plants; Rates 500) | CHEAL damage rating (100=total damage to plant; 0=no damage to plant) (plants; Rates 500)
90: damage to plant (100=total damage; 0=no damage) ECHCG ([1]; Pre-Emergence at 15.625 g/ha) | damage to plant (100=total damage; 0=no damage) ECHCG ([1]; Pre-Emergence at 62.5 g/ha) | damage to plant (100=total damage; 0=no damage) ECHCG ([1]; Pre-Emergence at 250 g/ha)
10: ALOMY damage rating (100=total damage to plant; 0=no damage to plant) (plants; Rates 130) | BRSNN damage rating (100=total damage to plant; 0=no damage to plant) (plants; Rates 130) | BRSNN damage rating (100=total damage to plant; 0=no damage to plant) (plants; Rates 250) | LOLPE damage rating (100=total damage to plant; 0=no damage to plant) (plants; Rates 500)
